Common to all, as to type: biochemical
In one test the target is T1, Porcine trypsin (Sus scrofa, UniProt P00761).
T1 construct: purchased Boehringer
The test is described as follows: Measurement of trypsin activity. The settings on record: at 500 nM; read-out: inhibited % of the trypsin activity. As to the method:
Measurement of Trypsin Activity
Porcine trypsin (Boehringer) was dissolved at a concentration of 1 mg/ml in 100 mM MOPS (3-[N-Morpholino]propanesulphonic acid) pH 7.3 containing 2 mM CaCl2. Prior to use, the enzyme was diluted 500 times to give a final concentration of 2 μg/ml.
Selected compounds were routinely stored as 5 mM stock solutions dissolved in DMSO (Dimethylsulphoxide) at −20° C. For the assay, aliquots were defrosted and a series of dilutions (×100, ×200, ×1,000, ×2,000, ×10,000, ×20,000 and ×100,000) made in 100 mM MOPS pH 7.3 containing 2 mM CaCl2. The substrate Bz-Phe-Val-Arg-pNA (Benzoyl-phenylalanyl-valyl-arginine-p-nitroanilide) was dissolved in DMSO to give a 10 mM solution. Immediately prior to use, the substrate was diluted to 0.3 mM (30 μl/ml) in 100 mM MOPS containing […].
The assay was set up in triplicate in a 96 well ELISA plate. 10 μl 2 μg/ml trypsin, 26 μl diluted inhibitor and 190 μl substrate were added sequentially. The plates were then incubated at 37° C. in a BioRad Benchmark Microplate Reader. The rate of release of p-nitroaniline was measured at […] over 10 minutes relative to that of the enzyme without inhibitor.

A further test addresses T2, Bovine Chymotrypsin (Bos taurus, UniProt P00766).
T2 construct: purchased Sigma C4129
Kind of test: Measurement of chymotrypsin activity. The settings on record: at 500 nM; read-out: inhibited % of the chymotrypsin activity. How it is done:
Measurement of Chymotrypsin Activity
Bovine Chymotrypsin (Sigma Type 11 Cat. No. C4129) was dissolved at a concentration of 1 mg/ml in 100 mM Tris pH 7.8. Prior to use, the enzyme was diluted 20 fold immediately before use, with the same buffer.
Selected compounds were routinely stored as 5 mM stock solutions dissolved in DMSO (Dimethylsulphoxide) at −20° C. For the assay, aliquots were defrosted and a series of dilutions (×20, ×100, ×200, ×1,000, ×2,000, ×10,000, ×20,000 and ×100,000) made in 100 mM Tris pH 7.8. The substrate H-Ala-Ala-Phe-p-nitroanilide (H-alanyl-alanyl-phenylalanine-p-nitroanilide) (Bachem Cat. No. L-1095) was dissolved in DMSO to give a 10 mM stock and stored at 4° C. until use. Immediately prior to use, the substrate was diluted to 0.3 mM final concentration (30 μl/ml) just before use.
The assay was set up in triplicate in a 96 well ELISA plate. 10 μl 50 μg/ml chymotrypsin, 50 μl diluted inhibitor and 190 μl substrate were added sequentially. The plates were then incubated at 37° C. in a BioRad Benchmark Microplate Reader. The rate of release of p-nitroaniline was measured at […] over 10 minutes relative to that of the enzyme without inhibitor.

The next test concerns the target T3, human pancreatic lipase (Homo sapiens, UniProt P16233).
T3 sequence (P16233 17-465): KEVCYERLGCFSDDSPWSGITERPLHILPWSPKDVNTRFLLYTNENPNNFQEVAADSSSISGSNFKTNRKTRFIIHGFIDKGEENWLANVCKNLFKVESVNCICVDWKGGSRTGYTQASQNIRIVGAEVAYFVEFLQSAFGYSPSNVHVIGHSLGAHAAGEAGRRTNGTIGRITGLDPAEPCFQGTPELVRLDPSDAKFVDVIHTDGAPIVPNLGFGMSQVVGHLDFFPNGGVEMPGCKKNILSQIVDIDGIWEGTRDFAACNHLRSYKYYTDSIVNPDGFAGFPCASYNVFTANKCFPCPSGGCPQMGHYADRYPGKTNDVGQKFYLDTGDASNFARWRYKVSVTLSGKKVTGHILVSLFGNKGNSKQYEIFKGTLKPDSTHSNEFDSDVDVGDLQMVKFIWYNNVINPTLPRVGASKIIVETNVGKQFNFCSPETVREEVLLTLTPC
Kind of test: Lipase activity, quinine diimine dye calorimetric assay (Sigma Lipase-PS). The following applies: at 500 nM; read-out: inhibited % of the pancreatic lipase activity. How it is done: Measurement of Lipase Activity Using a Quinine Diimine Dye Calorimetric Assay
The inhibitory activity of the selected compounds to pancreatic lipase was measured in the following assay available from Sigma Ltd (Lipase-PS™, catalog number 805-A):
The glycerol released from the action of pancreatic and monoglyceride lipase was oxidised to release H2O2. The peroxidase reaction step then produces a quinine dye which is pink in colour and absorbs light at a wavelength of 550 nm.
Individual test compounds were dissolved in DMSO (dimethyl sulphoxide) at 10 mM. DMSO was used to avoid any problems with compounds being water-insoluble. For individual compounds, the IC50 (concentration at which lipase activity is inhibited to one half of the maximum) was calculated by measuring the inhibitory activity from log-dose response curves using a range of inhibitor concentrations.
A range of compounds was assayed in the quinine diimine dye calorimetric assay which provides a rapid method to measure lipase inhibitory activity.

T1 sequence (P00761 9-231): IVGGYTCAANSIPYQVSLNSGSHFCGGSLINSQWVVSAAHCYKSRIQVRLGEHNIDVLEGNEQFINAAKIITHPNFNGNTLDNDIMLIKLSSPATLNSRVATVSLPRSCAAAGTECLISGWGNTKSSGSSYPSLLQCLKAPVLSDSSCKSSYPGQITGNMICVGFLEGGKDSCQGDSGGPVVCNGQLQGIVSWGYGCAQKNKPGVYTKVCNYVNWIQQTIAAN

Take `CCCCCCCCCCCCCCCCOc1nc2ccc(C)cc2c(=O)o1` [Compound 18, 2-Hexadecyloxy-6-methyl-4H-3,1-benzoxazin-4-one]: the inhibition at 0.5 µM on Porcine trypsin stood at 4%; on Bovine Chymotrypsin, 12.5%; at human pancreatic lipase, 98.7%.

(Values after patent US7858617B2, “2-oxy-benzoxazinone derivatives for the treatment of obesity” (Norgine B.V., priority 1999, dated 2010).)
